From patent US7045526B2, “Substituted 4-amino-2-aryl-tetrahydroquinazolines, their preparation, their use and pharmaceutical preparations comprising them” (Sanofi-Aventis Deutschland GmbH, priority 1999, dated 2006)

Target: T1, soluble guanylate cyclase (sGC) (Bos taurus, UniProt P16068+P19687)
T1 construct: The sGC employed had been isolated from bovine lung; from tissue; host or cells: bovine lung
T1 sequence (P16068 1-619): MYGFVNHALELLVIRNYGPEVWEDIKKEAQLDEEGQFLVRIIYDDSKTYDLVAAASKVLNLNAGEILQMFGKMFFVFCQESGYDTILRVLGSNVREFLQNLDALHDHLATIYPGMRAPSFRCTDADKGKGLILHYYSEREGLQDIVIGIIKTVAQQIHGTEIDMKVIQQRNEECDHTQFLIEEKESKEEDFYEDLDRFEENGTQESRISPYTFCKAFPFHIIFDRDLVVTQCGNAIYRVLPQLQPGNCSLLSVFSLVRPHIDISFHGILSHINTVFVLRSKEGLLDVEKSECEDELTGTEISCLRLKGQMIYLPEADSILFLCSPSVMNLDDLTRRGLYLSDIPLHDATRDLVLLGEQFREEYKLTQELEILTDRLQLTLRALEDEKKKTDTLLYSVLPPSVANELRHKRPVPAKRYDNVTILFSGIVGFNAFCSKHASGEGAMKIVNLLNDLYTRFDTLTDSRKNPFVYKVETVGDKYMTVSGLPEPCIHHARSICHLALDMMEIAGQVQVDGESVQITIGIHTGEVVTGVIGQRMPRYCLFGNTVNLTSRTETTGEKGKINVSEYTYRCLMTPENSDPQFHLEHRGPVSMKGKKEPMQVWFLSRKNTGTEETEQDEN
T1 sequence (P19687 1-691): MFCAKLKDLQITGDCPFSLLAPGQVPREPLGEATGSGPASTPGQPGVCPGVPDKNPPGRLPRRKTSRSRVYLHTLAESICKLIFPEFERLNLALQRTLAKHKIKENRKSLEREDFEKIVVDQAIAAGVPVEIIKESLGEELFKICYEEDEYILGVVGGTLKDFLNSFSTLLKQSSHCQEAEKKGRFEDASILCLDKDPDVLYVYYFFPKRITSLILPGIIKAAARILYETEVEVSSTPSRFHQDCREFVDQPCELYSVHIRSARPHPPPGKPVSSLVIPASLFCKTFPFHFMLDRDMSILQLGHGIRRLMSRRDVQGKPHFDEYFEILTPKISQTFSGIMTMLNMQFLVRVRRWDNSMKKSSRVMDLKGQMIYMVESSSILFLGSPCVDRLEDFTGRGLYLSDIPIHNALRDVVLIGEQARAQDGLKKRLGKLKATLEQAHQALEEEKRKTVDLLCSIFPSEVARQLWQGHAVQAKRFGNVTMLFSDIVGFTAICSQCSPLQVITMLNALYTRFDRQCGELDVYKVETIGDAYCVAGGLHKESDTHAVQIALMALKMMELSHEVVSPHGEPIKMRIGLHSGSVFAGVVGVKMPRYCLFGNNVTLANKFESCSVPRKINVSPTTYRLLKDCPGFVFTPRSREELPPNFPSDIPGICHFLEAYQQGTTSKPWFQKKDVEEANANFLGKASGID
Test: Activation of soluble guanylate cyclase (cGMP enzyme immunoassay)
Format: biochemical
Settings: test substance 50 μM; sGC isolated from bovine lung; 37° C., 15 to 20 minutes; [cGMP]test substance/[cGMP]control (basal enzyme activity)
Experimental: Activation of Soluble Guanylate Cyclase
The activation of soluble guanylate cyclase (sGC), which catalyzes the conversion of guanosine triphosphate (GTP) to cyclic guanosine monophosphate (cGMP) and pyrophosphate, by the compounds according to the invention was quantified with the aid of an enzyme immunoassay (EIA) from Amersham. For this, the test substances were first incubated with sGC in microtiter plates and then the quantity of the resulting cGMP was determined.
The sGC employed had been isolated from bovine lung (see Methods in Enzymology, Volume 195, p. 377). The test solutions (100 μl per well) contained 50 mM triethanolamine (TEA) buffer (pH 7.5), 3 mM MgCl2, 3 mM reduced glutathione (GSH), 0.1 mM GTP, 1 mM 3-isobutyl-1-methylxanthine (IBMX), suitably diluted enzyme solution and the test substance or, in the control experiments, solvent. […] The absorption of the samples was measured at 450 nm (reference wavelength 620 nm) in a microtiter plate reading apparatus. The cGMP concentration was determined by means of a calibration curve, which was obtained under the same experimental conditions. The activation of the sGC by a test substance is given as n-fold stimulation of the basal enzyme activity which was found in the control experiments (with solvent instead of test substance), calculated according to the formula: n-fold stimulation=[cGMP]test substance/[cGMP]control.

n-fold stimulation (at c = 50 μM): 28 n-fold
SMILES: CS(=O)(=O)O.O[C@H]1CC[C@H](Nc2nc(-c3ccc(Cl)cc3)nc3c2CCCC3)CC1 [Example 26, 2-(4-Chlorophenyl)-4-(trans-4-hydroxycyclohexylamino)-5,6,7,8-tetrahydroquinazoline methanesulfonic acid salt]
